Results: patent US10882860B2, “Treatment of osteoarthritis” (Samumed, LLC, priority 2015, dated 2021)
Marks after values point to notes of the source that are not given here.

Assays:
[1] = Competitive slurry experiments between polymorph forms (thermodynamic stability); type: physicochemical; conditions: competitive slurry of mixed forms
Description: In order to find out the thermodynamic stability between the different forms, several competitive slurry experiments were carried out. Form 1, Form 2, Form 2*, Form 3, Form 4, Form 4*, Form 4**, Form 5, Form 7, Form 8, Form 9, Form 10, Form 11, Form 11*, and Form 13 (10 mg for each) was mixed and slurried in 2 mL of solvent at both RT and 50° C. The solids were slurried for 3-5 days and then analyzed by XRD.
In order to find out the thermodynamic stability between Form 13 and Form 9, several competitive slurry experiments were carried out. 15 mg of Form 1, Form 9 and Form 13 solid were mixed in 1 mL of toluene, IPAc, and n-butyl acetate, and slurried for 3 days at RT and 50° C.
The residual solid was analyzed by XRD.

[2] = test system: rat models of osteoarthritis (ACLT and pMMx); assay: Efficacy of suspension compositions compared to a solution composition in rat OA model; type: in vivo, rats
Description: The efficacy of suspension compositions of the compound of Formula (I) (Form 1) as compared to a solution composition of the compound of Formula (I) in rat models of osteoarthritis (OA) was determined using a solution (final IA dose of 3 μg solution) and 0.1 μg and 0.3 μg suspension compositions of the compound of Formula (I) (Form 1).
The rats were treated with final dose levels of either a 0.1 μg or 0.3 μg suspension or a 3 μg solution of the compound of Formula (I). Histology score of cartilage integrity in the knee was the readout.

[3] = test system: moderate-to-severe symptomatic knee OA subjects; assay: Phase 1 MRI and radiograph study (bone marrow edema, cartilage thickness, joint space width); type: in vivo, human; conditions: for Bone Marrow Edema [N(%)]: Baseline Diffuse, Week 12 Diffuse / Bone Marrow Edema [N(%)]: Baseline Diffuse, Week 12 Focal / Bone Marrow Edema [N(%)]: Baseline Diffuse, Week 12 None / Bone Marrow Edema [N(%)]: Baseline Focal, Week 12 Diffuse / Bone Marrow Edema [N(%)]: Baseline Focal, Week 12 Focal / Bone Marrow Edema [N(%)]: Baseline Focal, Week 12 None / Bone Marrow Edema [N(%)]: Baseline None, Week 12 Diffuse / Bone Marrow Edema [N(%)]: Baseline None, Week 12 Focal / Bone Marrow Edema [N(%)]: Baseline None, Week 12 None: MRI; for change from baseline in joint space width (radiograph): Week 24
Source text: To assess the safety and efficacy of the compound of Formula (I) (Form 1), magnetic resonance imaging (MM) was used. Safety evaluations included assessment of bone marrow edema by Mill. MM was used to document changes from baseline in total cartilage volume and thickness in the compartments of the target knee joint. Imaging results (safety and exploratory outcomes) in the Phase 1 study are described above.
Knee MRIs were obtained with a 16 channel knee coil on a 3.0T MRI machine using a standard diagnostic protocol (resolution 0.1-0.4 mm). MM scans were collected at the baseline visit (which could occur ≤28 days prior to study injection) and again at Weeks 12 and 24. The sponsor was unblinded after Week 12 for each cohort; site investigators remained blinded.
An exploratory analysis of change in imaging outcomes was conducted using repeated measures analysis of covariance (ANCOVA) adjusting for baseline in the Intention-to-Treat (ITT) population.
As a safety assessment, MRI scans were used to monitor the presence of focal or diffuse bone marrow edema (BME) in all subjects.
Average cartilage thickness over covered subchondral bone was reported for the following four compartments: medial femoral condyles, lateral femoral condyles, medial tibial plateaus, and lateral tibial plateaus.
FIG. 27 depicts the MRI of a knee joint. To determine average cartilage thickness, the cartilage thickness between the subchondral bone area (400 and 404) and the articular cartilage surface (402 and 406) was measured at numerous (˜400-2000) locations in both directions in the parts covered by cartilage (cAB) and averaged. Measurements were performed in three dimensions. Additionally, the average of the lowest 1% of cartilage thickness was also reported for all 4 compartments. The total for both average thickness and lowest thickness were derived by summing each of the 4 compartments' observations.
Radiographs of the target knee were taken during the screening period and at Week 24 to document change from baseline in joint space width (JSW). Table 52 depicts joint space width as measured by radiography for three dosing cohorts and a placebo group.

**Q.** Which results are given for `CC(C)CC(=O)Nc1cncc(-c2ccc3[nH]nc(-c4nc5c(-c6cccc(F)c6)cncc5[nH]4)c3c2)c1` [compound of Formula (I)]?
**A.** Form after 3 days; dry ([1]; Acetone, 50° C.): Form 2*/Form 2*; Form after 3 days; wet ([1]; Acetone, 50° C.): Form 2*/Form 2*; Form after 5 days; dry ([1]; Acetone, 50° C.): Form 2*/Form 2*; Form after 5 days; wet ([1]; Acetone, 50° C.): Form 2*/Form 2*; Form after 3 days; dry ([1]; Acetone, RT): Form 2*/Form 2*; Form after 3 days; wet ([1]; Acetone, RT): Form 2*/Form 2*; Form after 5 days; dry ([1]; Acetone, RT): Form 2*/Form 2*; Form after 5 days; wet ([1]; Acetone, RT): Form 2*/Form 2*; Form after 3 days; dry ([1]; EA, 50° C.): Form 4/Form 4; Form after 3 days; wet ([1]; EA, 50° C.): Form 4/Form 4; Form after 5 days; dry ([1]; EA, 50° C.): Form 4*/Form 4*; Form after 5 days; wet ([1]; EA, 50° C.): Form 4*/Form 4*; Form after 3 days; dry ([1]; EA, RT): Form 4/Form 4; Form after 3 days; wet ([1]; EA, RT): Form 4/Form 4; Form after 5 days; dry ([1]; EA, RT): Form 4/Form 4; Form after 5 days; wet ([1]; EA, RT): Form 4/Form 4; Form after 3 days; dry ([1]; EtOH, 50° C.): Form 2*/Form 2*; Form after 3 days; wet ([1]; EtOH, 50° C.): Form 2*/Form 2*; Form after 5 days; dry ([1]; EtOH, 50° C.): Form 2*/Form 2*; Form after 5 days; wet ([1]; EtOH, 50° C.): Form 2*/Form 2*; Form after 3 days; dry ([1]; EtOH, RT): Form 2*/Form 2*; Form after 3 days; wet ([1]; EtOH, RT): Form 2*/Form 2*; Form after 5 days; dry ([1]; EtOH, RT): Form 2*/Form 2*; Form after 5 days; wet ([1]; EtOH, RT): Form 2*/Form 2*; Form after 3 days; dry ([1]; MeOH, 50° C.): Form 2*/Form 2*; Form after 3 days; wet ([1]; MeOH, 50° C.): Form 2*/Form 2*; Form after 5 days; dry ([1]; MeOH, 50° C.): Form 2*/Form 2*; Form after 5 days; wet ([1]; MeOH, 50° C.): Form 2*/Form 2*; Form after 3 days; dry ([1]; MeOH, RT): Form 2*/Form 2*; Form after 3 days; wet ([1]; MeOH, RT): Form 2*/Form 2*; Form after 5 days; dry ([1]; MeOH, RT): Form 2*/Form 2*; Form after 5 days; wet ([1]; MeOH, RT): Form 2*/Form 2*; Form after 3 days; dry ([1]; water, 50° C.): Form 13/Form 13; Form after 3 days; wet ([1]; water, 50° C.): Form 13/Form 13; Form after 5 days; dry ([1]; water, 50° C.): Form 13/Form 13; Form after 5 days; wet ([1]; water, 50° C.): Form 13/Form 13; Form after 3 days; dry ([1]; water, RT): Form 13/Form 13; Form after 3 days; wet ([1]; water, RT): Form 13/Form 13; Form after 5 days; dry ([1]; water, RT): Form l & Form 13; Form after 5 days; wet ([1]; water, RT): Form 13; histology score of cartilage integrity in the knee (vs. vehicle) ([2]; 0.1 μg suspension, 3 months, did not reach statistical significance): beneficial effect; histology score of cartilage integrity in the knee (vs. vehicle) ([2]; 0.3 μg suspension, 3 months): significant difference; histology score of cartilage integrity in the knee (vs. vehicle) ([2]; 3 μg solution, 2 months, did not reach statistical significance): beneficial effect; Bone Marrow Edema [N(%)]: Baseline Diffuse, Week 12 Diffuse ([3]; 0.03 mg cohort): 1 (6%) N(%); Bone Marrow Edema [N(%)]: Baseline Diffuse, Week 12 Focal ([3]; 0.03 mg cohort): 1 (6%) N(%); Bone Marrow Edema [N(%)]: Baseline Diffuse, Week 12 None ([3]; 0.03 mg cohort): 0 N(%); Bone Marrow Edema [N(%)]: Baseline Focal, Week 12 Diffuse ([3]; 0.03 mg cohort): 0 N(%); Bone Marrow Edema [N(%)]: Baseline Focal, Week 12 Focal ([3]; 0.03 mg cohort): 4 (25%) N(%); Bone Marrow Edema [N(%)]: Baseline Focal, Week 12 None ([3]; 0.03 mg cohort): 0 N(%); Bone Marrow Edema [N(%)]: Baseline None, Week 12 Diffuse ([3]; 0.03 mg cohort): 0 N(%); Bone Marrow Edema [N(%)]: Baseline None, Week 12 Focal ([3]; 0.03 mg cohort): 1 (6%) N(%); Bone Marrow Edema [N(%)]: Baseline None, Week 12 None ([3]; 0.03 mg cohort): 9 (57%) N(%); Joint space width by radiograph, Week 24 (mm) Actual [Mean (SD)] ([3]; 0.03 mg cohort, N 15): 4.50 (1.72) mm; Joint space width by radiograph, Week 24 (mm) Change from baseline [Mean (SD)] ([3]; 0.03 mg cohort, N 15): 0.00 (0.69) mm; Mean cartilage thickness by MRI, Week 12 (mm) Actual [Mean (SD)] ([3]; 0.03 mg cohort, N 16): 5.38 (1.19) mm; Mean cartilage thickness by MRI, Week 12 (mm) Change from baseline [Mean (SD)] ([3]; 0.03 mg cohort, N 16): −0.06 (0.39) mm; Mean thinnest cartilage by MRI, Week 12 (mm) Actual [Mean (SD)] ([3]; 0.03 mg cohort, N 16): 3.84 (1.57) mm; Mean thinnest cartilage by MRI, Week 12 (mm) Change from baseline [Mean (SD)] ([3]; 0.03 mg cohort, N 16): 0.11 (0.37) mm; area of mean thinnest cartilage by MRI ([3]; 0.03 mg cohort, Week 12): possible trend towards increase; change from baseline in joint space width (radiograph) ([3]; 0.03 mg cohort): no change; Bone Marrow Edema [N(%)]: Baseline Diffuse, Week 12 Diffuse ([3]; 0.07 mg cohort): 0 N(%); Bone Marrow Edema [N(%)]: Baseline Diffuse, Week 12 Focal ([3]; 0.07 mg cohort): 1 (6%) N(%); Bone Marrow Edema [N(%)]: Baseline Diffuse, Week 12 None ([3]; 0.07 mg cohort): 0 N(%); Bone Marrow Edema [N(%)]: Baseline Focal, Week 12 Diffuse ([3]; 0.07 mg cohort): 0 N(%); Bone Marrow Edema [N(%)]: Baseline Focal, Week 12 Focal ([3]; 0.07 mg cohort): 1 (6%) N(%); Bone Marrow Edema [N(%)]: Baseline Focal, Week 12 None ([3]; 0.07 mg cohort): 1 (6%) N(%); Bone Marrow Edema [N(%)]: Baseline None, Week 12 Diffuse ([3]; 0.07 mg cohort): 0 N(%); Bone Marrow Edema [N(%)]: Baseline None, Week 12 Focal ([3]; 0.07 mg cohort): 2 (13%) N(%); Bone Marrow Edema [N(%)]: Baseline None, Week 12 None ([3]; 0.07 mg cohort): 11 (69%) N(%); Joint space width by radiograph, Week 24 (mm) Actual [Mean (SD)] ([3]; 0.07 mg cohort, N 14): 4.16 (1.64) mm; Joint space width by radiograph, Week 24 (mm) Change from baseline [Mean (SD)] ([3]; 0.07 mg cohort, N 14, p = 0.006 versus placebo): 0.59 (0.66)* mm; Mean cartilage thickness by MRI, Week 12 (mm) Actual [Mean (SD)] ([3]; 0.07 mg cohort, N 16): 5.37 (0.71) mm; Mean cartilage thickness by MRI, Week 12 (mm) Change from baseline [Mean (SD)] ([3]; 0.07 mg cohort, N 16): −0.02 (0.25) mm; Mean thinnest cartilage by MRI, Week 12 (mm) Actual [Mean (SD)] ([3]; 0.07 mg cohort, N 16): 3.88 (1.39) mm; Mean thinnest cartilage by MRI, Week 12 (mm) Change from baseline [Mean (SD)] ([3]; 0.07 mg cohort, N 16): 0.10 (0.55) mm; area of mean thinnest cartilage by MRI ([3]; 0.07 mg cohort, Week 12): possible trend towards increase; change from baseline in joint space width (radiograph) ([3]; 0.07 mg cohort): increase; Bone Marrow Edema [N(%)]: Baseline Diffuse, Week 12 Diffuse ([3]; 0.23 mg cohort): 2 (13%) N(%); Bone Marrow Edema [N(%)]: Baseline Diffuse, Week 12 Focal ([3]; 0.23 mg cohort): 0 N(%); Bone Marrow Edema [N(%)]: Baseline Diffuse, Week 12 None ([3]; 0.23 mg cohort): 0 N(%); Bone Marrow Edema [N(%)]: Baseline Focal, Week 12 Diffuse ([3]; 0.23 mg cohort): 0 N(%); Bone Marrow Edema [N(%)]: Baseline Focal, Week 12 Focal ([3]; 0.23 mg cohort): 8 (50%) N(%); Bone Marrow Edema [N(%)]: Baseline Focal, Week 12 None ([3]; 0.23 mg cohort): 1 (6%) N(%); Bone Marrow Edema [N(%)]: Baseline None, Week 12 Diffuse ([3]; 0.23 mg cohort): 0 N(%); Bone Marrow Edema [N(%)]: Baseline None, Week 12 Focal ([3]; 0.23 mg cohort): 1 (6%) N(%); Bone Marrow Edema [N(%)]: Baseline None, Week 12 None ([3]; 0.23 mg cohort): 4 (25%) N(%); Mean cartilage thickness by MRI, Week 12 (mm) Actual [Mean (SD)] ([3]; 0.23 mg cohort, N 15): 5.32 (1.03) mm; Mean cartilage thickness by MRI, Week 12 (mm) Change from baseline [Mean (SD)] ([3]; 0.23 mg cohort, N 15): −0.04 (0.24) mm; Mean thinnest cartilage by MRI, Week 12 (mm) Actual [Mean (SD)] ([3]; 0.23 mg cohort, N 15): 3.01 (1.27) mm; Mean thinnest cartilage by MRI, Week 12 (mm) Change from baseline [Mean (SD)] ([3]; 0.23 mg cohort, N 15): −0.13 (0.30) mm; Joint space width by radiograph, Week 24 (mm) Actual [Mean (SD)] ([3]; 0.23 mg cohort, N 16): 3.47 (1.68) mm; Joint space width by radiograph, Week 24 (mm) Change from baseline [Mean (SD)] ([3]; 0.23 mg cohort, N 16): −0.15 (1.07) mm; change from baseline in joint space width (radiograph) ([3]; 0.23 mg cohort): decrease; exploratory imaging results, dose comparison ([3]; 0.23 mg dose vs 0.03 mg and 0.07 mg doses): less effective; effect on bone marrow edema compared to Placebo ([3]; single IA injection, interim): no appreciable effect; mean cartilage thickness by MRI ([3]; treated subjects, Week 12): no substantial degradation; subjects with improved BME results (focal to none and diffuse to focal) ([3]; treatment groups, baseline to Week 12): 4
